These results are taken from patent US10137185B2, “PAP peptide analogues” (THE NOTTINGHAM TRENT UNIVERSITY, priority 2014, dated 2018).

In test [1] the test system is PBMCs from HLA-A2 positive patients with prostate cancer and individuals with benign disease. Put plainly: IFNγ ELISPOT of PBMCs from prostate cancer patients and individuals with benign disease after peptide re-stimulation. The format is cell-based, human. The procedure: FIG. 3. IFNγ response of peripheral blood mononuclear cells (PBMCs) isolated from patients with prostate cancer and individuals with benign disease after re-stimulation with PAP-115-123 epitope using an ELISPOT assay. Cryopreserved PBMCs from ten HLA-A2 positive prostate cancer patients and ten benign candidates were compared. The PBMCs were cultured in vitro with 5 μg of PAP-114-128 epitope for 7 days. The cells were then washed and rested overnight and 4×10^4 cells were added to each well of an ELISPOT plate. PAP-115-123 epitope peptide (1 μg) was added per well and cells cultured for 48 hours. The plates were then washed according to the manufacturer's protocol. PBMCs with no added peptide were used as control. Comparisons of means (±SEM) between groups (cells pulsed with PAP-115-123 or no peptide) are made using an unpaired t test.
FIG. 12. IFNγ responses generated by PBMCs isolated from 10 patients with prostate cancer and 10 individuals with benign disease after re-stimulation with the PAP-115-123 analogue epitope peptide, as determined using an ELISPOT assay. PBMCs were cultured in vitro with 5 μg of PAP-114-128 analogue epitope for 7 days. The cells were then washed and rested overnight, at which time and 4×10^4 cells were added to each well of an ELISPOT plate. PAP-115-123 analogue epitope peptide (1 μg) was added to each well and the cells were cultured for 48 hours. The plates were then washed according to the manufacturer's protocol. PBMCs cultured with no added peptide were used as the control. Comparisons of means (±SEM) between groups (PBMCs pulsed with PAP-115-123 analogue or no peptide) are made using an unpaired t test.
To determine the presence of circulating T cells specific for PAP-115-123 in humans, PBMCs from HLA-A2 positive patients with prostate cancer and individuals with benign disease were used. Cryopreserved PBMCs were thawed, washed and restimulated for 7 days with […] epitope peptide. The cells were then washed and rested overnight, at which time 4×10^4 cells were added to each well of an ELISPOT plate. PAP-115-123 epitope peptide (1 μg) was added to each well and the cells cultured for 48 hours. The plates were developed according to the manufacturer's instructions. PBMCs cultured with no peptide were used as controls. […] The number of IFNγ spots generated by PBMCs from one of the patients was as high as 220 (vs 60 spots for the control). The number of spots generated by PBMCs for the other 6 patients with prostate cancer ranged between 50 and 100 (vs 10-20 in controls). Although some of the PBMCs from individuals with benign disease generated 50-100 spots, the number of spots in the control wells was also high.
To determine the presence of circulating T cells specific for PAP-115-123 analogue peptide in humans, PBMCs from HLA-A2 positive patients with prostate cancer and individuals with benign disease were used. Cryopreserved PBMCs were thawed, washed and restimulated for 7 days with […] analogue epitope. The cells were then washed and rested overnight, at which time 4×10^4 cells were added to each well of an ELISPOT plate. 1 μg of PAP-115-123 analogue epitope was added to each well and cells were cultured for 48 hours. The plates were developed as per the manufacturer's instructions. PBMCs cultured with no peptide were used as control. […] The number of IFNγ spots in one of the patients was as high as 180 spots compared to control (54 spots). Similar response was also obtained when PBMCs were co-cultured with PAP-115-123 epitope (FIG. 3). The number of spots generated by PBMCs from the 6 patients with prostate cancer patients ranged between 50 and 100 (vs 10-20 in control wells). Although some of the samples from individuals with benign disease generated 50-100 spots, the number of spots in the control wells was also high.

Test [2] deals with PBMCs isolated from patients with prostate cancer. Nature of the test: IFNγ ELISA of supernatants of PBMCs, Norway clinical trial. The test is classed as cell-based, human. The procedure:
FIG. 8. Fold change in the IFNγ response generated by PBMCs isolated from patients with prostate cancer from the Norway Clinical Trial after re-stimulation with of PAP-115-123 epitope peptide (10 μg), as assessed using an ELISA. Patients that were reported to have responded to the treatment (p10, p12, p15, p19, p101, p102, p107, p108) are indicated by red bars. […] The cryopreserved PBMCs were washed and rested overnight, at which time 4×10^4 cells were added to each well of a 96 well plate. PAP-115-123 epitope peptide (10 μg) was added to each well and the plates cultured for 48 hours. Supernatants were harvested and analysed for IFNγ secretion.
Cryopreserved PBMCs were thawed, washed and rested overnight, at which time 4×10^4 cells were added to each well of an ELISPOT plate. PAP-115-123 epitope peptide (10 μg) was to each well and cells were cultured for 48 hours. The plates were developed according to the manufacturer's protocol. PBMCs cultured with HIV-derived peptide or no peptide were used as controls. A 2-4 fold higher PAP-115-123 specific IFNγ response was observed using PBMCs from 8 of the responder patients and 2-12 fold decreases in the IFNγ response was observed using PBMCs from 4 of the non-responder patients (FIG. 7). IFNγ secretion in these samples was confirmed by analysing harvested supernatants using an R&D Systems ELISA (FIG. 8). […]

Turning to SAMTNLAAL [PAP-115-123], in test [1] (1 μg peptide, 4×10^4 cells per well, 10-20 in controls), the “number of spots, other 6 patients with prostate cancer” value is on record as 50-100 spots. Further, in test [1] (1 μg peptide, spots in control wells also high), the “number of spots, some PBMCs from individuals with benign disease” value is 50-100 spots. Further, the “peptide-specific IFNγ response in samples from individuals with benign disease” value in test [1] (10 benign individuals, 1 μg peptide) was “no PAP-115-123 specific IFNγ response and none”. Besides, in test [1] (of 10 samples, 7 days re-stimulation with the 15-mer, then 1 μg peptide, 48 hours, vs no peptide), the “PBMC samples from patients with prostate cancer with peptide-specific IFNγ response” value worked out at 7. Also, in test [1] (one prostate cancer patient, 1 μg peptide, 4×10^4 cells per well, 48 hours), the “number of IFNγ spots, highest patient” value stood at 220 spots. For the same sequence, in test [2] (10 μg peptide), the “fold lower IFNγ levels post vs pre vaccination, non-responders” value was 2-2.5 fold. The “fold higher IFNγ levels post vs pre vaccination, responders” value in test [2] (all responders except p19, 10 μg peptide) is 1-1.5 fold.
